# Data as given in PMC10391610, “Survivin prevents the polycomb repressor complex 2 from methylating histone 3 lysine 27” (iScience, 2023).
# How the values were obtained:
# [U-15N]-survivin = biological target: T1, [U-15N]-survivin (Homo sapiens, UniProt O15392); assay: NMR titration of [U-15N]-survivin with PRC2-derived peptides; format: binding
# T1 construct: transferred to the survivin1-142 construct used in the present study; His8 tag (pHIS8 vector, thrombin-cleavable); made in house; host or cells: E. coli BL21(DE3) star, M9 medium with 15NH4Cl
# Description: Uniformly [U] labeled [U-^15N] survivin was produced in H2O-based M9 medium[69] containing ^15NH4Cl as the sole nitrogen and in case of or [U-^15N,^13C] survivin D-(^13C)-glucose was additionally added as the sole carbon source, respectively (Sigma-Aldrich). Expression was induced with 0.5 mM IPTG and continued for 20–22 h at 15°C. Cell harvesting and subsequent purification followed the same protocol as for unlabeled survivin.
# NMR measurements were performed on Bruker (Fällanden, Switzerland) AvanceIII 800 MHz spectrometers running Topspin 3.5 or 3.6, respectively, equipped with cryogenically cooled triple resonance probes. All NMR experiments were performed in NMR buffer (50 mM Tris, 150 mM NaCl, 1 mM DTT, pH 7.5) and at 298 K. The sequence-specific backbone assignment of survivin1-117 was taken from previously published assignment,[50] and transferred to the survivin1-142 construct used in the present study. Existing resonance assignments were confirmed, and additional resonances were assigned in a sequence-specific manner by the following experiments: [^1H,^15N]-TROSY HSQC,[70] BEST-TROSY-type HNCA and HNCO experiments.[71]
# The peptides were synthetized and purified to 95% by Biomatik. The peptides were titrated into ^15N labelled survivin (0.3 mM). Standard 2D [^15N,^1H]-SOFAST-HMQC[72] experiments were recorded with inter-scan delays of 200 ms and 1025 x 256 complex points for the ^1H and ^15N dimensions, respectively, for the titrations of the different peptides with [U-^15N] survivin.
# For the global analysis, the NMR signal strength was quantified by summing the 200 highest values in each 2D NMR spectrum to ensure that all peaks corresponding to the different amino acid residues in survivin are potentially covered. The titration curve was modelled using a Bayesian machine learning approach using the python library pymc3.[66] The logistic function was chosen due to computational convenience. The most important parameter of this function was coined “critical peptide concentration (cpc)” and its logarithm was modelled using a uniform a priori distribution between −10 and 1. p(log10cpc|lower=−10,upper=1)=1/upper−lower
# The modelling errors related to the choice of function affect the analysis of different peptides similarly. Therefore, the relative magnitude of cpc in comparison is more reliable than the absolute magnitude of cpc itself. The concentration values were converted to dimensionless quantities by dividing with 1 mM and the NMR signal intensity was normalized for the concentration range studied.
# A deterministic sigmoid (logistic) function was used to model signal decay as a function of peptide concentration. Additional a priori assumptions of the function parameters were the following: p(k|lower=−10,upper=10)=1/upper−lower p(L|lower=−3,upper=3)=1/upper−lower p(b|lower=−10,upper=10)=1/upper−lower
# 1000 posterior samples were collected in four parallel chains using the No-U-Turn sampling algorithm (NUTS) after 2000 tuning steps/chain.[83] The default sampling parameters were used except for “target accept” parameter, which was increased to 0.95. For the final analysis the 1000 samples from the four chains were merged to yield 4000 samples.
# survivin = biological target: T2, survivin (Homo sapiens, UniProt O15392); assay: Biolayer interferometry, immobilized EZH2 peptide, survivin as analyte; format: binding
# T2 construct: transferred to the survivin1-142 construct used in the present study; His8 tag (pHIS8 vector, thrombin-cleavable); made in house; host or cells: E. coli BL21(DE3) star
# Description: EZH2_178-211 peptide from previous peptide microarray experiments were used as immobilized ligands using amine reactive second-generation biosensor (AR2G, Fortebio, Fremont, CA, USA). Ethanolamine was used to quench unbound AR2G surface to prevent non-specific interactions. The biosensor was incubated in MQ water for 15 minutes before use in the Octet instrument (Fortebio, Fremont, CA, USA) with the following settings: equilibration in water for 60 s and 1000 rpm shaking, activation in EDC/s-NHS for 300 s at 1000 rpm, peptide immobilization in immobilization buffer pH 6.0 (Fortebio) for 900 s and 1000 rpm (50 μM for the peptide), quenching with 1 M ethanolamine for 300 s and 1000 rpm, baseline measurement in survivin SEC buffer for 600 s and 1000 rpm, association with survivin (100 nM, 33.3 nM, 11.1 nM, and 3.7 nM concentrations) as the experiment analyte for 600 s and 1000 rpm, and dissociation step in survivin SEC buffer for 1200 s and 1000 rpm. The assay was performed at 30°C. The reference wells and reference biosensors were subtracted.
# Δλ(t) values were converted to dimensionless quantities by dividing the wavelength shifts with 1 nm prior to the analysis. To develop the model, we tentatively assumed Langmuir’s 1:1 model.[85] The kinetic modelling was performed with the pymc3 python package[66] using a Bayesian model: p(KD,app|lower=10^−15,upper=10^−3)=1/upper−lower p(k−1|lower=10^−20,upper=10)=1/upper−lower k1=k−1/KD,app p(A|lower=10^−6,upper=10)=1/upper−lower p(ε|lower=10^−6,upper=1)=1/upper−lower p(Δλ(0)|μ=⟨Δλi⟩,σ=1/10∑(Δλi−⟨Δλi⟩)^2/n)=1/2πσe^−1/2σ(Δλ(t)−μ)^2;Δλ(0)∈[10^−20,+∞]
# The association and dissociation phases were modelled simultaneously, and the probability of wavelength shift during association phase was modeled as: p(Δλ(t)|μ=Ac/KD,app+c(1−e^−(k1c+k−1)t),σ=ε)=1/2πσe^−1/2σ(Δλ(t)−μ)^2
# The probability of wavelength shift during the dissociation phase was modelled as: p(Δλ(t)|μ=Δλ(0)e^−k−1t,σ=ε)=1/2πσe^−1/2σ(Δλ(t)−μ)^2, where A and k1 are the amplitude and rate constant of the exponential association process, respectively. The concentration of the analyte is c and KD,app is the apparent dissociation constant. The dissociation rate constant is marked with k-1. ε represents the standard deviation of Δλ(t) . The total amplitude of wavelength shift is the wavelength shift at the beginning of the dissociation phase ( Δλ(0) ). Its prior distribution is modeled by a truncated normal distribution with parameters based on an empirical Bayes estimate of the starting observations. The data points in the interval 0 to 1 s are represented by the index i. The residual plots from the Bayesian model used in the BLI experiment with peptide EZH2_172-211 and survivin are shown in Figure S6.
# T1 sequence (O15392 whole entry): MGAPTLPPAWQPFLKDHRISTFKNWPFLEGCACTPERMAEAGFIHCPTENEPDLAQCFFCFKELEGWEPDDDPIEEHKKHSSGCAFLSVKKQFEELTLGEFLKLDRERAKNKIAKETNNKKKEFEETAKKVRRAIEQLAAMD
# T2 sequence (O15392 whole entry): as above
sequence,measurement,setting,value
"VELVNALGQYNDDDDDDDGD DPEEREEKQKDLEDHRDDKE [EZH2_172-211, PRC2-derived peptide, EZH2 residues 172–211, synthesized by Biomatik]",critical peptide concentration,"[U-15N]-survivin; 300 μM survivin (monomer), pH 7.5, 298 K",2.1 µM
same,<L>,"[U-15N]-survivin; logistic function parameter L, posterior mean (Table S10)",0.68
same,<b>,"[U-15N]-survivin; logistic function parameter b, posterior mean (Table S10)",0.32
same,<k>,"[U-15N]-survivin; logistic function parameter k, posterior mean (Table S10)",-1.04
same,binding strength from slow exchange regime (in words),"[U-15N]-survivin; new resonances at high peptide concentrations, 298 K",strong binding in the low nanomolar range or below
same,BLI interaction (in words),"survivin; EZH2_172-211-coated sensors, survivin 100, 33 and 11 nM","Survivin interacted with EZH2_172-211-coated sensors at concentrations of 100, 33, and 11 nM"
same,apparent dissociation constant (in words),"survivin; summary of posterior parameters, when the apparent dissociation constant is well defined",nanomolar interaction
same,A (amplitude of association),"survivin; survivin 3.7 nM, posterior mean ± SD",0.18 ± 0.21 nm
same,A (amplitude of association),"survivin; survivin 33 nM, posterior mean, SD 1.8×10-4",0.11 nm
same,A (amplitude of association),"survivin; survivin 100 nM, posterior mean, SD 1.1×10-4",0.23 nm
